Patent US10662187B2, “Bruton's tyrosine kinase inhibitors” (Zibo Biopolar Changsheng Pharmaceutical Co. Ltd., priority 2016, dated 2020)

Molecular target: BTK (Homo sapiens (Human), UniProt Q06187)
Assay: Btk kinase assay (HTRF)
Assay type: biochemical
Details: [ATP]=80 μM, BTK=3.4 nM; read-out: BTK Inhibition
Experimental: Btk Kinase Assay and Other Kinases Assay Btk kinase activity was determined using a homogenous time resolved fluorescence (HTRF) methodology. Measurements were performed in a reaction volume of 15 μL using 384-well assay plates. Kinase enzyme, inhibitor, ATP and 1 μM peptide substrate were incubated in a reaction buffer compose of Hepes 50 mM (pH7.0), NaN3 0.02%, BSA 0.01%, Orthocanadate 0.1 mM. […] For each compound, enzyme activity as measured at various concentrations of compound, Negative control reactions were performed in the absence of inhibitor in two replicates and eight no enzyme controls were used to determine baseline fluorescence levels.

Sequence of BTK (Q06187 whole entry, species assumed): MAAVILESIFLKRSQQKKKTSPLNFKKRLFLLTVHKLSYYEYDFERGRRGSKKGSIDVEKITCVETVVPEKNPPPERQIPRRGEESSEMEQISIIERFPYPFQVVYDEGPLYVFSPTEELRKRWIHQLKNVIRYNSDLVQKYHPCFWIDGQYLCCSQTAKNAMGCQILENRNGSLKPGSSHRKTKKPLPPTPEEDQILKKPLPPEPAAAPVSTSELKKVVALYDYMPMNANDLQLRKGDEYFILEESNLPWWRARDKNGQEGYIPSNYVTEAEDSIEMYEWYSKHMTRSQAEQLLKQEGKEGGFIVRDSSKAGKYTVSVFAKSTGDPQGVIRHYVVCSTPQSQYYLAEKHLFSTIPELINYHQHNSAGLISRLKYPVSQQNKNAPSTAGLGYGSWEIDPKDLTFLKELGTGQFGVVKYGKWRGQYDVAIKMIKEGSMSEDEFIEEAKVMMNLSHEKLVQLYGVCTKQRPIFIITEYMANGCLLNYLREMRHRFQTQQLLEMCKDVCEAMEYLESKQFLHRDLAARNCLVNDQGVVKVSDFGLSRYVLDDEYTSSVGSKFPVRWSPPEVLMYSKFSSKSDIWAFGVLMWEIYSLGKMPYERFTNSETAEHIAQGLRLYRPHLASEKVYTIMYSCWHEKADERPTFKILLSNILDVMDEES

| Compound | IC50 |
| --- | --- |
| C=CC(=O)N1CC[C@@H](n2nc(-c3ccc(Oc4cccc(OC)c4F)cc3)c3cncc(C)c32)C1 [Compound 5, (R)-1-(3-(3-(4-(2-fluoro-3-methoxyphenoxy)phenyl)-7-methyl-1H-pyrazolo [4,3-c]pyridin-1-yl)pyrrolidin-1-yl) prop-2-en-1-one] | < 10 nM |
| C=CC(=O)N1CCC[C@@H](n2nc(-c3ccc(Oc4cccc5c4OCO5)cc3)c3cnccc32)C1 [Compound 8, (R)-1-(3-(3-(4-(benzo[d][1,3]dioxol-4-yloxy)phenyl)-1H-pyrazolo[4,3-c]pyridin-1-yl)piperidin-1-yl)prop-2-en-1-one] | 100 to 1000 nM |
| CC#CC(=O)N1CCC[C@@H](n2nc(-c3ccc(Oc4cccc(OC)c4Cl)cc3)c3cnccc32)C1 [Compound 25, (R)-1-(3-(3-(4-(2-chloro-3-methoxyphenoxy)phenyl)-1H-pyrazolo[4,3-c]pyridin-1-yl)piperidin-1-yl)but-2-yn-1-one] | 100 to 1000 nM |
| C=CC(=O)N1CC2(CC(n3nc(-c4ccc(Oc5cccc(OC)c5Cl)cc4)c4cnccc43)C2)C1 [Compound 30, 1-(6-(3-(4-(2-chloro-3-methoxyphenoxy)phenyl)-1H-pyrazolo[4,3-c]pyridin-1-yl)-2-azaspiro[3.3]heptan-2-yl)prop-2-en-1-one] | 100 to 1000 nM |
| C=CC(=O)N1CC[C@@H](n2nc(-c3ccc(Oc4cccc5c4CCC5)cc3)c3cnccc32)C1 [Compound 31, (R)-1-(3-(3-(4-((2,3-dihydro-1H-inden-4-yl)oxy)phenyl)-1H-pyrazolo[4,3-c]pyridin-1-yl)pyrrolidin-1-yl)prop-2-en-1-one] | 10 to 100 nM |
| C=CC(=O)N1CCC[C@H](n2nc(-c3ccc(Oc4ccccc4)c(Cl)c3)c3cnccc32)C1 [Compound 35, (S)-1-(3-(3-(3-chloro-4-phenoxyphenyl)-1H-pyrazolo[4,3-c]pyridin-1-yl)piperidin-1-yl)prop-2-en-1-one] | 10 to 100 nM |
| C=CC(=O)N1CC[C@H](n2nc(-c3ccc(Oc4cccc(Cl)c4)cc3)c3cnccc32)C1 [Compound 36, (S)-1-(3-(3-(4-(3-chlorophenoxy)phenyl)-1H-pyrazolo[4,3-c]pyridin-1-yl)pyrrolidin-1-yl)prop-2-en-1-one] | 10 to 100 nM |
| C=CC(=O)N1CCC[C@H](n2nc(-c3ccc(Oc4cccc(C)c4)cc3)c3cnccc32)C1 [Compound 37, (S)-1-(3-(3-(4-(m-tolyloxy)phenyl)-1H-pyrazolo[4,3-c]pyridin-1-yl)piperidin-1-yl)prop-2-en-1-one] | 10 to 100 nM |
| C=CC(=O)N1CC[C@@H](n2nc3ccncc3c2-c2ccc(Oc3cccc(F)c3Cl)cc2)C1 [Compound 38, (R)-1-(3-(3-(4-(2-chloro-3-fluorophenoxy)phenyl)-2H-pyrazolo[4,3-c]pyridin-2-yl)pyrrolidin-1-yl)prop-2-en-1-one] | 10 to 100 nM |
| C=CC(=O)N1CCC[C@@H](n2nc3ccncc3c2-c2ccc(Oc3cccc(F)c3Cl)cc2)C1 [Compound 39, (R)-1-(3-(3-(4-(2-chloro-3-fluorophenoxy)phenyl)-2H-pyrazolo[4,3-c]pyridin-2-yl)piperidin-1-yl)prop-2-en-1-one] | 10 to 100 nM |
| C=CC(=O)N1CCC[C@H](n2nc(-c3ccc(Oc4cccc(F)c4Cl)cc3)c3cnccc32)C1 [Compound 40, (S)-1-(3-(3-(4-(2-chloro-3-fluorophenoxy)phenyl)-1H-pyrazolo[4,3-c]pyridin-1-yl)piperidin-1-yl)prop-2-en-1-one] | 10 to 100 nM |
| C=CC(=O)N1CC[C@@H](n2nc(-c3ccc(Oc4cccc(OC)c4F)cc3)c3c2CCN(C(C)=O)C3)C1 [Compound 45, (R)-1-(3-(5-acetyl-3-(4-(2-fluoro-3-methoxyphenoxy)phenyl)-4,5,6,7-tetrahydro-1H-pyrazolo[4,3-c]pyridin-1-yl)pyrrolidin-1-yl)prop-2-en-1-one] | 1000 to 10000 nM |
| C=CC(=O)N1CCc2c(c(-c3ccc(Oc4cccc(OC)c4F)cc3)nn2[C@@H]2CCN(C(=O)C=C)C2)C1 [Compound 46, (R)-1-(3-(5-acryloyl-3-(4-(2-fluoro-3-methoxyphenoxy)phenyl)-4,5,6,7-tetrahydro-1H-pyrazolo[4,3-c]pyridin-1-yl)pyrrolidin-1-yl)prop-2-en-1-one] | > 10000 nM |

The next lines start with the values.

| IC50 | Compound |
| --- | --- |
| 10 to 100 nM | C=CC(=O)N1CC[C@@H](n2nc(-c3ccc(Oc4cccc5ccccc45)cc3)c3cnccc32)C1 [Compound 7, (R)-1-(3-(3-(4-(naphthalen-1-yloxy)phenyl)-1H-pyrazolo[4,3-c]pyridin-1-yl)pyrrolidin-1-yl)prop-2-en-1-one] |
| 10 to 100 nM | C=CC(=O)N1CCC[C@@H](n2nc(-c3ccc(Oc4cccc(Cl)c4)cc3)c3cnccc32)C1 [Compound 9, (R)-1-(3-(3-(4-(3-chlorophenoxy)phenyl)-1H-pyrazolo[4,3-c]pyridin-1-yl)piperidin-1-yl)prop-2-en-1-one] |
| 10 to 100 nM | C=CC(=O)N1CC[C@@H](n2nc(-c3ccc(Oc4cccc(C)c4)cc3)c3cnccc32)C1 [Compound 10, (R)-1-(3-(3-(4-(m-tolyloxy)phenyl)-1H-pyrazolo[4,3-c]pyridin-1-yl)pyrrolidin-1-yl)prop-2-en-1-one] |
| 10 to 100 nM | C=CC(=O)N1CC[C@@H](n2nc(-c3ccc(Oc4cccc(C)c4C)cc3)c3cnccc32)C1 [Compound 12, (R)-1-(3-(3-(4-(2,3-dimethylphenoxy)phenyl)-1H-pyrazolo[4,3-c]pyridin-1-yl)pyrrolidin-1-yl)prop-2-en-1-one] |
| < 10 nM | C=CC(=O)N1CC[C@@H](n2nc(-c3ccc(Oc4cccc(OC)c4Cl)cc3)c3cnccc32)C1 [Compound 13, (R)-1-(3-(3-(4-(2-chloro-3-methoxyphenoxy)phenyl)-1H-pyrazolo[4,3-c]pyridin-1-yl)pyrrolidin-1-yl)prop-2-en-1-one] |
| 10 to 100 nM | C=CC(=O)N1CC[C@@H](n2nc(-c3ccc(Oc4cccc(F)c4C)cc3)c3cnccc32)C1 [Compound 14, (R)-1-(3-(3-(4-(3-fluoro-2-methylphenoxy)phenyl)-1H-pyrazolo[4,3-c]pyridin-1-yl)pyrrolidin-1-yl)prop-2-en-1-one] |
| 10 to 100 nM | C=CC(=O)N1CCC[C@@H](n2nc(-c3ccc(Oc4cccc(F)c4C)cc3)c3cnccc32)C1 [Compound 16, (R)-1-(3-(3-(4-(3-fluoro-2-methylphenoxy)phenyl)-1H-pyrazolo[4,3-c]pyridin-1-yl)piperidin-1-yl)prop-2-en-1-one] |
| 10 to 100 nM | C=CC(=O)N1CCC(Cn2nc(-c3ccc(Oc4ccccc4)cc3)c3cnccc32)C1 (centres unmarked) [Compound 21, 1-(3-((3-(4-phenoxyphenyl)-1H-pyrazolo[4,3-c]pyridin-1-yl)methyl)pyrrolidin-1-yl)prop-2-en-1-one] |
| 10 to 100 nM | C=CC(=O)Nc1cccc(-n2nc(-c3ccc(Oc4ccccc4)cc3)c3cnccc32)c1 [Compound 22, N-(3-(3-(4-phenoxyphenyl)-1H-pyrazolo[4,3-c]pyridin-1-yl)phenyl)acrylamide] |
| 10 to 100 nM | C=CC(=O)N1CCC[C@@H](n2nc(-c3ccc(Oc4cccc(OC(C)C)c4)cc3)c3cnccc32)C1 [Compound 23, (R)-1-(3-(3-(4-(3-isopropoxyphenoxy)phenyl)-1H-pyrazolo[4,3-c]pyridin-1-yl)piperidin-1-yl)prop-2-en-1-one] |
| < 10 nM | C=CC(=O)N1CCC[C@@H](n2nc(-c3ccc(Oc4cccc(C)c4C)cc3)c3cnccc32)C1 [Compound 24, (R)-1-(3-(3-(4-(2,3-dimethylphenoxy)phenyl)-1H-pyrazolo[4,3-c]pyridin-1-yl)piperidin-1-yl)prop-2-en-1-one] |
| < 10 nM | C=CC(=O)N1CC2(CC(n3nc(-c4ccc(Oc5cccc(OC)c5F)cc4)c4cnccc43)C2)C1 [Compound 26, 1-(6-(3-(4-(2-fluoro-3-methoxyphenoxy)phenyl)-1H-pyrazolo[4,3-c]pyridin-1-yl)-2-azaspiro[3.3]heptan-2-yl)prop-2-en-1-one] |
| 10 to 100 nM | C=CC(=O)N1CC[C@@H](n2nc(-c3ccc(Oc4cccc(OC)c4F)cc3)c3cncc(Cl)c32)C1 [Compound 27, (R)-1-(3-(7-chloro-3-(4-(2-fluoro-3-methoxyphenoxy)phenyl)-1H-pyrazolo[4,3-c]pyridin-1-yl)pyrrolidin-1-yl)prop-2-en-1-one] |
| < 10 nM | C=CC(=O)N1CC[C@@H](n2nc(-c3ccc(Oc4cccc(OC)c4F)cc3)c3cncc(C#N)c32)C1 [Compound 28, (R)-1-(1-acryloylpyrrolidin-3-yl)-3-(4-(2-fluoro-3-methoxyphenoxy)phenyl)-1H-pyrazolo[4,3-c]pyridine-7-carbonitrile] |
| 10 to 100 nM | C=CC(=O)N1CCC[C@@H](n2nc(-c3ccc(OC4CCCCC4)cc3)c3cnccc32)C1 [Compound 29, (R)-1-(3-(3-(4-(cyclohexyloxy)phenyl)-1H-pyrazolo[4,3-c]pyridin-1-yl)piperidin-1-yl)prop-2-en-1-one] |
| < 10 nM | C=CC(=O)N1CCC[C@@H](n2nc(-c3ccc(Oc4ccccc4)cc3)c3cnccc32)C1 [Compound 33, (R)-1-(3-(3-(4-phenoxyphenyl)-1H-pyrazolo[4,3-c]pyridin-1-yl)piperidin-1-yl)prop-2-en-1-one] |
| < 10 nM | C=CC(=O)N1CC[C@H](n2nc(-c3ccc(Oc4cccc(Cl)c4Cl)cc3)c3cnccc32)C1 [Compound 42, (S)-1-(3-(3-(4-(2,3-dichlorophenoxy)phenyl)-1H-pyrazolo[4,3-c]pyridin-1-yl)pyrrolidin-1-yl)prop-2-en-1-one] |
| < 10 nM | C=CC(=O)N1CCC[C@H](n2nc(-c3ccc(Oc4cccc(Cl)c4Cl)cc3)c3cnccc32)C1 [Compound 44, (S)-1-(3-(3-(4-(2,3-dichlorophenoxy)phenyl)-1H-pyrazolo[4,3-c]pyridin-1-yl)piperidin-1-yl)prop-2-en-1-one] |
| < 10 nM | C=CC(=O)N1CC[C@@H](n2nc(-c3ccc(Oc4cccc(C)c4F)cc3)c3cnccc32)C1 [Compound 47, (R)-1-(3-(3-(4-(2-fluoro-3-methylphenoxy)phenyl)-1H-pyrazolo[4,3-c]pyridin-1-yl)pyrrolidin-1-yl)prop-2-en-1-one] |
